Assay results taken from patent publication US20240108006A1, “PESTICIDALLY ACTIVE HETEROAROMATIC COMPOUNDS” (SYNGENTA CROP PROTECTION AG, priority 2021, published 2024).

Key:
Format in all cases: in vivo
[1] = system: Myzus persicae; experiment: Example B5: Myzus persicae (green peach aphid), feeding/contact activity; conditions: 144 h, application rate of 200 ppm, 6 days after infestation
Method: Example B5: Myzus persicae (Green Peach Aphid):Feeding/Contact Activity
Sunflower leaf discs were placed onto agar in a 24-well microtiter plate and sprayed with aqueous test solutions prepared from 10,000 ppm DMSO stock solutions. After drying, the leaf discs were infested with an aphid population of mixed ages. The samples were assessed for mortality 6 days after infestation.

[2] = system: Myzus persicae; experiment: Example B7: Myzus persicae (green peach aphid), intrinsic activity, sucrose solution 24-well; conditions: 120 h, application rate of 12.5 ppm, 5 days after infestation, read-out: control (mortality)
From the text: Example B7: Myzus persicae (Green Peach Aphid). Intrinsic Activity
Test compounds prepared from 10,000 ppm DMSO stock solutions were applied by pipette into 24-well microtiter plates and mixed with sucrose solution. The plates were closed with a stretched Parafilm. A plastic stencil with 24 holes was placed onto the plate and infested pea seedlings were placed directly on the Parafilm. The infested plate was closed with a gel blotting paper and another plastic stencil and then turned upside down. The samples were assessed for mortality 5 days after infestation.
The following compounds gave an effect of at least 80% control at an application rate of 12.5 ppm: […]

[3] = system: Plutella xylostella; experiment: Example B8: Plutella xylostella (diamond back moth), artificial diet 24-well, eggs; conditions: 192 h, application rate of 200 ppm, 8 days after infestation, read-out: effect in at least one of the two categories (mortality or growth inhibition)
Procedure, shortened: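 Plutella eggs placed onto dried, compound-treated artificial diet, the aqueous test solutions diluted from 10,000 ppm DMSO stocks. Eight days post-infestation, larvae rated for mortality and growth inhibition relative to untreated controls.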

[4] = system: Chilo suppressalis; experiment: Example B1: Chilo suppressalis (striped rice stemborer), artificial diet, L2 larvae; conditions: 144 h, application rate of 200 ppm, 6 days after infestation, read-out: control in at least one of the three categories (mortality, anti-feedant effect, or growth inhibition)
Procedure, shortened: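 L2 larvae (6-8 per well) were placed on dried artificial diet that had been dosed with aqueous dilutions of 10,000 ppm DMSO stock solutions. After 6 days, control was credited if mortality, antifeedant effect or growth inhibition was higher than in untreated samples.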

[5] = system: Diabrotica balteata; experiment: Example B2: Diabrotica balteata (corn root worm), maize sprouts, L2 larvae; conditions: 96 h, application rate of 200 ppm, 4 days after infestation, read-out: control in at least one of the two categories (mortality or growth inhibition)
Method: Example B2: Diabrotica balteata (Corn Root Worm)
Maize sprouts placed onto an agar layer in 24-well microtiter plates were treated with aqueous test solutions prepared from 10,000 ppm DMSO stock solutions by spraying. After drying, the plates were infested with L2 larvae (6 to 10 per well). The samples were assessed for mortality and growth inhibition in comparison to untreated samples 4 days after infestation.
The following compounds gave an effect of at least 80% control in at least one of the two categories (mortality or growth inhibition) at an application rate of 200 ppm: […]

[6] = system: Spodoptera littoralis; experiment: Example B9: Spodoptera littoralis (Egyptian cotton leaf worm), cotton leaf discs, L1 larvae; conditions: foliar, 72 h, application rate of 200 ppm, 3 days after infestation, read-out: control in at least one of the three categories (mortality, anti-feedant effect, or growth inhibition)
Procedure, shortened: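 Five L1 larvae placed on sprayed, dried cotton leaf discs; spray solutions aqueous, from 10,000 ppm DMSO stocks. Control given when mortality, anti-feedant effect or growth inhibition exceeds untreated samples at 3 days.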

C[C@H](NC(=O)Nc1ccnn1-c1ccc(Cl)cn1)c1ncnn1-c1ncccn1 [Example P17, 1-[2-(5-chloro-2-pyridyl)pyrazol-3-yl]-3-[(1S)-1-(2-pyrimidin-2-yl-1,2,4-triazol-3-yl)ethyl]urea]
≥ 80%: mortality at 200 ppm [1]

C[C@H](NC(=O)Nc1cc(C(F)(F)F)ncn1)c1ncnn1-c1ncccn1 [Example P32, 1-[(1S)-1-(2-pyrimidin-2-yl-1,2,4-triazol-3-yl)ethyl]-3-[6-(trifluoromethyl)pyrimidin-4-yl]urea]
≥ 80%: mortality at 200 ppm [1]

C[C@H](NC(=O)Nc1ccc(Cl)c(OC(F)(F)C(F)F)c1)c1ncnn1-c1ncccn1 [Example P35, 1-[4-chloro-3-(1,1,2,2-tetrafluoroethoxy)phenyl]-3-[(1S)-1-(2-pyrimidin-2-yl-1,2,4-triazol-3-yl)ethyl]urea]
≥ 80%: mortality at 12.5 ppm [2] | percent effect (mortality or growth inhibition) at 200 ppm [3] | percent control (mortality, anti-feedant effect or growth inhibition) at 200 ppm [4] | percent control (mortality or growth inhibition) at 200 ppm [5] | percent control (mortality, anti-feedant effect or growth inhibition) at 200 ppm [6]

C[C@H](NC(=O)Nc1cc(C(F)(F)F)c(Cl)cc1Br)c1ncnn1-c1ncccn1 [Example P48, 1-[2-bromo-4-chloro-5-(trifluoromethyl)phenyl]-3-[(1S)-1-(2-pyrimidin-2-yl-1,2,4-triazol-3-yl)ethyl]urea]
≥ 80%: mortality at 12.5 ppm [2] | percent effect (mortality or growth inhibition) at 200 ppm [3] | percent control (mortality, anti-feedant effect or growth inhibition) at 200 ppm [4] | percent control (mortality or growth inhibition) at 200 ppm [5] | percent control (mortality, anti-feedant effect or growth inhibition) at 200 ppm [6]

C[C@H](NC(=O)Nc1cc(C(F)(F)F)cc(C(F)(F)F)n1)c1ncnn1-c1ncccn1 [Example P91, 1-[4,6-bis(trifluoromethyl)-2-pyridyl]-3-[(1S)-1-(2-pyrimidin-2-yl-1,2,4-triazol-3-yl)ethyl]urea]
≥ 80%: mortality at 200 ppm [1]

C[C@H](NC(=O)Nc1cc(C(F)(F)F)n(C)n1)c1ncnn1-c1ncccn1 [Example P108, 1-[1-methyl-5-(trifluoromethyl)pyrazol-3-yl]-3-[(1S)-1-(2-pyrimidin-2-yl-1,2,4-triazol-3-yl)ethyl]urea]
≥ 80%: mortality at 200 ppm [1]

C[C@H](NC(=O)Nc1cc(OCc2cccc(Br)n2)c(Cl)cc1Cl)c1ncnn1-c1ncccn1 [Example P145, 1-[5-[(6-bromo-2-pyridyl)methoxy]-2,4-dichloro-phenyl]-3-[(1S)-1-(2-pyrimidin-2-yl-1,2,4-triazol-3-yl)ethyl]urea]
≥ 80%: mortality at 200 ppm [1]

COc1ccc(COc2cc(NC(=O)N[C@@H](C)c3ncnn3-c3ncccn3)c(Cl)cc2Cl)cc1F [Example P168, 1-[2,4-dichloro-5-[(3-fluoro-4-methoxy-phenyl)methoxy]phenyl]-3-[(1S)-1-(2-pyrimidin-2-yl-1,2,4-triazol-3-yl)ethyl]urea]
≥ 80%: mortality at 200 ppm [1]

CC(NC(=O)Nc1cc(OC(F)(F)C(F)F)c(Cl)cc1Cl)c1ncnn1-c1ncccn1 (stereo not shown) [Example P177, 1-[2,4-dichloro-5-(1,1,2,2-tetrafluoroethoxy)phenyl]-3-[1-(2-pyrimidin-2-yl-1,2,4-triazol-3-yl)ethyl]urea]
≥ 80%: mortality at 12.5 ppm [2] | percent effect (mortality or growth inhibition) at 200 ppm [3] | percent control (mortality, anti-feedant effect or growth inhibition) at 200 ppm [4] | percent control (mortality or growth inhibition) at 200 ppm [5] | percent control (mortality, anti-feedant effect or growth inhibition) at 200 ppm [6]

C[C@H](NC(=O)Nc1cc(C(F)(F)F)c(Cl)cc1Cl)c1ncnn1-c1ncccn1 [Example P178, 1-[2,4-dichloro-5-(trifluoromethyl)phenyl]-3-[(1S)-1-(2-pyrimidin-2-yl-1,2,4-triazol-3-yl)ethyl]urea]
≥ 80%: mortality at 12.5 ppm [2] | percent effect (mortality or growth inhibition) at 200 ppm [3] | percent control (mortality, anti-feedant effect or growth inhibition) at 200 ppm [4] | percent control (mortality or growth inhibition) at 200 ppm [5] | percent control (mortality, anti-feedant effect or growth inhibition) at 200 ppm [6]

C[C@H](NC(=O)Nc1cc(OC(F)(F)F)c(Cl)cc1F)c1ncnn1-c1ncccn1 [Example P214, 1-[4-chloro-2-fluoro-5-(trifluoromethoxy)phenyl]-3-[(1S)-1-(2-pyrimidin-2-yl-1,2,4-triazol-3-yl)ethyl]urea]
≥ 80%: mortality at 12.5 ppm [2] | percent effect (mortality or growth inhibition) at 200 ppm [3] | percent control (mortality, anti-feedant effect or growth inhibition) at 200 ppm [4] | percent control (mortality or growth inhibition) at 200 ppm [5] | percent control (mortality, anti-feedant effect or growth inhibition) at 200 ppm [6]

C[C@H](NC(=O)Nc1cc(OC(F)(F)C(F)C(F)(F)F)c(Cl)cc1F)c1ncnn1-c1ncccn1 (stereo partly drawn) [Example P215, 1-[4-chloro-2-fluoro-5-(1,1,2,3,3,3-hexafluoropropoxy)phenyl]-3-[(1S)-1-(2-pyrimidin-2-yl-1,2,4-triazol-3-yl)ethyl]urea]
≥ 80%: mortality at 12.5 ppm [2] | percent effect (mortality or growth inhibition) at 200 ppm [3] | percent control (mortality, anti-feedant effect or growth inhibition) at 200 ppm [4] | percent control (mortality or growth inhibition) at 200 ppm [5] | percent control (mortality, anti-feedant effect or growth inhibition) at 200 ppm [6]

CC(C)Oc1cc(NC(=O)N[C@@H](C)c2ncnn2-c2ncccn2)c(Cl)cc1Cl [Example P236, 1-(2,4-dichloro-5-isopropoxy-phenyl)-3-[(1S)-1-(2-pyrimidin-2-yl-1,2,4-triazol-3-yl)ethyl]urea]
≥ 80%: mortality at 12.5 ppm [2] | percent effect (mortality or growth inhibition) at 200 ppm [3] | percent control (mortality, anti-feedant effect or growth inhibition) at 200 ppm [4] | percent control (mortality or growth inhibition) at 200 ppm [5] | percent control (mortality, anti-feedant effect or growth inhibition) at 200 ppm [6]

CC(NC(=O)Nc1cc(OC(F)(F)C(F)F)c(Cl)cc1Cl)c1nccnc1-c1ncccn1 (stereo not shown) [Example P238, 1-[2,4-dichloro-5-(1,1,2,2-tetrafluoroethoxy)phenyl]-3-[1-(3-pyrimidin-2-ylpyrazin-2-yl)ethyl]urea]
≥ 80%: mortality at 12.5 ppm [2] | percent effect (mortality or growth inhibition) at 200 ppm [3] | percent control (mortality, anti-feedant effect or growth inhibition) at 200 ppm [4] | percent control (mortality or growth inhibition) at 200 ppm [5] | percent control (mortality, anti-feedant effect or growth inhibition) at 200 ppm [6]

C[C@H](NC(=O)Nc1cnc(C(F)(F)F)cc1Cl)c1ncnn1-c1ccc(C#N)cn1 [Example P257, 1-[4-chloro-6-(trifluoromethyl)-3-pyridyl]-3-[(1S)-1-[2-(5-cyano-2-pyridyl)-1,2,4-triazol-3-yl]ethyl]urea]
≥ 80%: mortality at 12.5 ppm [2] | percent effect (mortality or growth inhibition) at 200 ppm [3] | percent control (mortality, anti-feedant effect or growth inhibition) at 200 ppm [4] | percent control (mortality or growth inhibition) at 200 ppm [5] | percent control (mortality, anti-feedant effect or growth inhibition) at 200 ppm [6]

C[C@H](NC(=O)Nc1cc(OC(F)F)c(Cl)cc1Cl)c1ncnn1-c1ncccn1 [Example P272, 1-[2,4-dichloro-5-(difluoromethoxy)phenyl]-3-[(1S)-1-(2-pyrimidin-2-yl-1,2,4-triazol-3-yl)ethyl]urea]
≥ 80%: mortality at 12.5 ppm [2] | percent effect (mortality or growth inhibition) at 200 ppm [3] | percent control (mortality, anti-feedant effect or growth inhibition) at 200 ppm [4] | percent control (mortality or growth inhibition) at 200 ppm [5] | percent control (mortality, anti-feedant effect or growth inhibition) at 200 ppm [6]

Cc1nc([C@H](C)NC(=O)Nc2cc(OC(F)(F)C(F)F)c(Cl)cc2Cl)n(-c2ncccn2)n1 [Example P276, 1-[2,4-dichloro-5-(1,1,2,2-tetrafluoroethoxy)phenyl]-3-[(1S)-1-(5-methyl-2-pyrimidin-2-yl-1,2,4-triazol-3-yl)ethyl]urea]
≥ 80%: mortality at 12.5 ppm [2] | percent effect (mortality or growth inhibition) at 200 ppm [3] | percent control (mortality, anti-feedant effect or growth inhibition) at 200 ppm [4] | percent control (mortality or growth inhibition) at 200 ppm [5] | percent control (mortality, anti-feedant effect or growth inhibition) at 200 ppm [6]
